# The supplement of paper PMC10307832
# Assays:
# Test in all cases: relative viability (nuclei count vs DMSO), 5 days (fraction); higher = more cells survive
# IU1-47 + Foretinib = compound: CC1=CC(=C(N1C2=CC=C(C=C2)Cl)C)C(=O)CN3CCCCC3 [IU1-47] + COc1cc2c(Oc3ccc(NC(=O)C4(C(=O)Nc5ccc(F)cc5)CC4)cc3F)ccnc2cc1OCCCN1CCOCC1 [Foretinib] (partner 0.25 µM)
# Procedure, shortened: (§1)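 Relative viability equals treated-well nuclei counts divided by vehicle-well nuclei counts. Counts came from 4× images of lung cancer cell lines grown in 1536-well plates for 5 days after pin-tool dosing on the day after seeding. Dosing used one drug alone or a fixed anchor-drug dose plus five library-drug doses (not always all listed) in √10 steps, and values are medians of duplicate plates.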
# FG-4592 + Trametinib = compound: Cc1nc(C(=O)NCC(=O)O)c(O)c2ccc(Oc3ccccc3)cc12 [FG-4592] + CC(=O)Nc1cccc(-n2c(=O)n(C3CC3)c(=O)c3c(Nc4ccc(I)cc4F)n(C)c(=O)c(C)c32)c1 [Trametinib] (partner 0.02 µM)
# Procedure, shortened: as §1
# IU1-47 + Vorinostat = compound: CC1=CC(=C(N1C2=CC=C(C=C2)Cl)C)C(=O)CN3CCCCC3 [IU1-47] + O=C(CCCCCCC(=O)Nc1ccccc1)NO [Vorinostat] (partner 1 µM)
# Procedure, shortened: as §1
# FG-4592 + Navitoclax = compound: Cc1nc(C(=O)NCC(=O)O)c(O)c2ccc(Oc3ccccc3)cc12 [FG-4592] + CC1(C)CCC(c2ccc(Cl)cc2)=C(CN2CCN(c3ccc(C(=O)NS(=O)(=O)c4ccc(N[C@H](CCN5CCOCC5)CSc5ccccc5)c(S(=O)(=O)C(F)(F)F)c4)cc3)CC2)C1 [Navitoclax] (partner 0.5 µM)
# Procedure, shortened: as §1
Cell Line,relative viability (IU1-47 + Foretinib; first compound 0.08 µM),relative viability (IU1-47 + Foretinib; first compound 0.253 µM),relative viability (IU1-47 + Foretinib; first compound 0.8 µM),relative viability (IU1-47 + Foretinib; first compound 2.53 µM),relative viability (IU1-47 + Foretinib; first compound 8 µM),relative viability (FG-4592 + Trametinib; first compound 0.08 µM),relative viability (FG-4592 + Trametinib; first compound 0.253 µM),relative viability (FG-4592 + Trametinib; first compound 0.8 µM),relative viability (FG-4592 + Trametinib; first compound 2.53 µM),relative viability (FG-4592 + Trametinib; first compound 8 µM),relative viability (IU1-47 + Vorinostat; first compound 0.08 µM),relative viability (IU1-47 + Vorinostat; first compound 0.253 µM),relative viability (IU1-47 + Vorinostat; first compound 0.8 µM),relative viability (IU1-47 + Vorinostat; first compound 2.53 µM),relative viability (IU1-47 + Vorinostat; first compound 8 µM),relative viability (FG-4592 + Navitoclax; first compound 0.08 µM),relative viability (FG-4592 + Navitoclax; first compound 0.253 µM),relative viability (FG-4592 + Navitoclax; first compound 0.8 µM),relative viability (FG-4592 + Navitoclax; first compound 2.53 µM),relative viability (FG-4592 + Navitoclax; first compound 8 µM)
LXF-289,1.01,1.06,1.1,0.967,0.902,0.676,0.68,0.682,0.712,0.731,0.699,0.839,0.946,0.751,0.752,0.956,0.914,1.02,0.936,0.953
NCI-H23,0.91,1.14,1.04,1.17,1.03,0.381,0.38,0.37,0.394,0.327,0.661,,0.653,0.666,0.622,0.832,0.786,0.809,0.744,0.708
NCI-H322M,1.07,1.03,0.882,0.965,1.03,,0.482,0.475,0.497,0.438,0.935,0.968,0.907,0.894,0.885,1.3,1.21,1.08,1,1.19
NCI-H441,0.873,1.15,0.986,1.13,0.864,0.497,0.433,0.401,0.3,0.497,0.947,0.884,0.764,0.813,0.595,0.606,1.01,0.573,0.964,0.588
NCI-H460,1.09,1.04,1.26,0.86,1.15,0.163,0.13,0.127,0.0958,0.129,0.766,0.724,1.05,0.819,0.801,1.15,1.08,1.25,0.963,0.979
NCI-H520,0.785,0.866,0.698,1.15,0.651,0.594,0.557,0.573,0.719,0.473,0.783,0.671,0.681,0.685,0.589,1.03,1.05,1.05,1.07,0.879
NCI-H596,0.893,0.82,0.806,0.87,0.761,0.861,0.804,,0.842,0.564,0.715,,0.662,0.658,0.587,0.897,0.914,,0.991,0.817
NCI-H647,1.12,1.36,,1.25,1.34,0.444,0.453,0.336,0.448,0.333,0.519,0.587,0.691,0.917,0.726,1.16,1.04,1.04,0.961,1.12
NCI-H727,1.05,0.988,0.871,1.02,0.987,0.363,0.335,0.352,0.357,0.38,1.26,1.38,1.21,1.13,1.11,0.537,0.403,0.413,0.63,0.525
NCI-H838,1.12,1.07,0.981,1.06,1.11,0.497,0.51,0.412,0.473,0.46,0.768,0.746,0.834,0.689,0.64,1.27,1.09,1.09,1.2,1.11
NCI-H1355,1.06,1.06,0.946,,0.998,0.462,0.455,,0.421,0.337,0.72,0.646,0.674,,0.518,1.08,0.94,,0.901,0.862
NCI-H1395,0.944,0.895,1.12,0.939,1,0.961,1.01,0.936,1.03,0.773,0.676,0.798,0.611,0.517,0.605,1.37,1.01,,1.02,0.958
NCI-H1437,1.31,1.29,1.28,1.22,1.2,0.539,0.414,0.473,0.47,0.301,0.807,0.801,0.81,0.735,0.801,1.07,1.09,1.16,1.01,0.852
NCI-H1650,1.05,1.17,1.1,1.4,0.886,0.604,0.573,0.615,0.603,0.628,0.631,0.523,0.62,0.564,0.722,1.23,1.12,1.37,1.17,1.24
NCI-H1651,0.946,0.869,0.903,0.787,0.973,0.85,0.836,0.76,0.774,0.82,0.559,0.558,0.556,0.531,0.495,1.13,0.946,1.08,1.18,0.833
NCI-H1666,1.04,0.928,0.893,0.948,0.896,0.88,0.856,0.922,0.776,0.711,0.961,0.984,1.08,1.1,1.03,1.01,0.674,1.07,0.905,0.879
